PMC8151276, “An Integrated Approach toward NanoBRET Tracers for Analysis of GPCR Ligand Engagement” (Molecules, 2021)

Biological target: T1, ADORA2A (Homo sapiens, UniProt P29274)
T1 construct: purchased Promega (in-house HiBiT-GPCR construct library, NanoBRET)
Test: NanoBRET screen HiBiT-ADORA2A in HEK293
Format: binding
Method: Each tracer candidate was screened across the entire library of HiBiT-GPCR constructs using NanoBRET as the detection modality. As depicted in Figure 4A, the specificity of interactions was evaluated through decrease in BRET due to competitive displacement of a bound tracer by excess parental compound. Each tracer was analyzed for binding to each HiBiT-GPCR fusion in the absence and in the presence of competing parental compound. Briefly, HEK293 cells were transfected with HiBiT-GPCR constructs diluted into promoterless DNA to reduce expression and maximize translocation to the cell surface. Each tracer candidate was then screened at concentrations of 1 μM and 0.1 μM across cells expressing these fusions. Cells were treated for 1.5 h with tracer either alone or in the presence of 20 μM competing parental compound (i.e., control). BRET was measured upon addition of purified LgBiT and subsequent complementation with HiBiT genetically fused to a GPCR. The specificity of interactions was assessed through a decrease in BRET signal due to competitive displacement of the bound tracer. To further gauge the robustness of these interactions, the fold response over the control (i.e., BRETtracer/BRETcontrol) was calculated. We chose a 1.5-fold response, which translates to ≥7-fold signal over noise as the minimal threshold required to score an interaction as positive.
HiBiT-GPCR DNA constructs were diluted in 10 mM Tris pH 8 to a final concentration of 0.01 μg/μL, arrayed in 96-well plates and stored at −20 °C. For transfection, HEK293 cells were suspended in Opti-MEM (without phenol red) supplemented with 2% fetal bovine serum (Seradigm) and 100 units/mL penicillin–streptomycin (Gibco) at a final concentration of 220,000 cells/mL and dispensed into white 96-well plates at 90 μL/well. Subsequent transfections and screens were carried using an Agilent Bravo Automated Liquid Handling Platform. First, the 96-well HiBiT DNA arrays were diluted 25-fold in Opti-MEM (without serum or phenol red) to a final concentration of 0.0004 μg/μL and 20 μL of the diluted DNAs were transferred into new 96-well plates. Next, promoterless carrier DNA (1 μg/μL) was diluted 25-fold (0.04 μg/μL) and then dispensed into the diluted arrays at 20 μL/well. Following brief mixing, Viafect transfection reagent (Promega) diluted 16-fold into Opti-MEM was dispensed into the plates at 40 μL/well. After mixing by pipetting, plates were incubated for 10 min on the pipetting station deck. The DNA-transfection reagent complexes were then added to plates containing cells. To facilitate the screen, 10 μL of DNA-transfection reagent complexes were added in duplicates to the top 4 and bottom 4 rows, resulting in two identical 48-well arrays per plate. Plates with transfected cells were incubated for 18–20 h at 37 °C/5% CO2. A screen of each tracer across the entire library using two different concentrations requires duplicate plates of transfected cells. Depending on the number of tracers being screened, transfections can be scaled up using the same ratios. The next day, for each tracer, four 20× screening solutions in tracer dilution buffer (Promega) were prepared: two duplicates at final concentration of 20 μM and two duplicates at a final concentration of 2 μM. […] The four resulting solutions were diluted 4-fold in Opti-MEM without serum or phenol red to generate 5× solutions (5 µM and 0.5 µM tracer +/− 100 μM competing compound). To screen the library, a BioTek MultiFlo FX liquid dispenser was used to dispense 22.5 µL of tracer solution to the top 4 rows and 22.5 µL tracer + competing compound solution to the 4 bottom rows. Plates were briefly mixed on an orbital shaker and incubated for 1.5 h at room temperature. […] Plates were briefly mixed on an orbital shaker and incubated for 15 min to allow complementation.

T1 sequence (P29274 whole entry): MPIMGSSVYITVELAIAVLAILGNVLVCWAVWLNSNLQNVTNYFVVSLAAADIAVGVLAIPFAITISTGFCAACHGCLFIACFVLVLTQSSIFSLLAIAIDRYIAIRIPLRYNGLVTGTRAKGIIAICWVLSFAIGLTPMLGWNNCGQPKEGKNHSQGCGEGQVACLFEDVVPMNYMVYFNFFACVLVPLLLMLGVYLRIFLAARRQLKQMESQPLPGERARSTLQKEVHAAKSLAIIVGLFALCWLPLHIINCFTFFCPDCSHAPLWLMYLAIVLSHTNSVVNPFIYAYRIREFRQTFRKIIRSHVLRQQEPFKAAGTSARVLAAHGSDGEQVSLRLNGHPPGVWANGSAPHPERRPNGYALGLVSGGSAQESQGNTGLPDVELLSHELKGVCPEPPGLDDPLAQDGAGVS

| Structure (SMILES) | NanoBRET Fold Response (ADORA2A, tracer 0.1μM) | NanoBRET Fold Response (ADORA2A, tracer 1μM) | other results |
| --- | --- | --- | --- |
| Cc1nc2n(c(=O)c1CCN1CCC(c3noc4cc(F)ccc34)CC1)CCCC2OC(=O)NCCOCCOCCOCCOCCNC(=O)CCc1ccc2n1[B-](F)(F)[N+]1=C(c3ccc[nH]3)C=CC1=C2 (stereo not shown) [Risperidone-2-NB590] | 0.98 | 0.98 |  |
| CCOC(=O)c1cc(C#N)c(N2CCC(C(=O)NS(=O)(=O)Cc3ccccc3/C=C/C(=O)NCCNC(=O)CCc3ccc4n3[B-](F)(F)[N+]3=C(c5ccc[nH]5)C=CC3=C4)CC2)nc1C [AZD1283-1-NB590] |  |  | NanoBRET Fold Response (ADORA2A, 0.1μM): 1.06; NanoBRET Fold Response (ADORA2A, 1μM): 1.04 |
| Cc1cc2c(s1)Nc1ccccc1N=C2N1CCN(CCCNC(=O)CCOCCOCCOCCOCCNC(=O)CCc2ccc3n2[B-](F)(F)[N+]2=C(c4ccc[nH]4)C=CC2=C3)CC1 [Olanzapine-a-2-NB590] | 0.97 | 0.93 |  |
| COc1ccccc1N1CCN(CCCCN2C(=O)c3ccc(CNC(=O)CCOCCNC(=O)c4ccc(CNC(=O)CCc5ccc6n5[B-](F)(F)[N+]5=C(c7ccc[nH]7)C=CC5=C6)cc4)cc3C2=O)CC1 [NAN-190-3-NB590] | 1.00 | 0.91 |  |
| CC(C)N(CC[C@H](c1ccccc1)c1cc(CCNC(=O)CCOCCOCCOCCOCCNC(=O)CCc2ccc3n2[B-](F)(F)[N+]2=C(c4ccc[nH]4)C=CC2=C3)ccc1O)C(C)C [Tolterodine-2-NB590] | 1.35 | 0.95 |  |
| CN(C)CCC=C1c2ccccc2CCc2ccc(C(=O)NCCNC(=O)CCOCCOCCOCCOCCNC(=O)CCc3ccc4n3[B-](F)(F)[N+]3=C(c5ccc[nH]5)C=CC3=C4)cc21 [Amitriptyline-b-2-NB590] |  |  | NanoBRET Fold Response (tracer at 0.1μM, listed as amitriptyline-b-2-NB590): 1.07; NanoBRET Fold Response (tracer at 1μM, listed as amitriptyline-b-2-NB590): 1.20 |
| O=C(CCOCCOCCOCCOCCNC(=O)CCc1ccc2n1[B-](F)(F)[N+]1=C(c3ccc[nH]3)C=CC1=C2)NCCCN1CCN(C2=Nc3ccccc3Oc3ccc(Cl)cc32)CC1 [Loxapine-a-2-NB590] | 1.08 | 1.11 |  |
| CN(C)CCC=C1c2ccccc2CCc2ccc(C(=O)NCCNC(=O)CCOCCOCCOCCOCCNC(=O)CCc3ccc4n3[B-](F)(F)[N+]3=C(c5ccc[nH]5)C=CC3=C4)cc21 [Amitriptyline-a-2-NB590] |  |  | NanoBRET Fold Response (tracer at 0.1μM): 1.02; NanoBRET Fold Response (tracer at 1μM): 1.07 |
| O=C(CCc1ccc2n1[B-](F)(F)[N+]1=C(c3ccc[nH]3)C=CC1=C2)NCCOCCOCCNC(=O)OCCOCCN1CCN(C2=Nc3ccccc3Sc3ccccc32)CC1 [Quetiapine-a-2-NB590] | 0.99 | 0.91 |  |
| COc1ccccc1N1CCN(CCCCN2C(=O)c3ccc(CNC(=O)CCOCCOCCOCCOCCNC(=O)CCc4ccc5n4[B-](F)(F)[N+]4=C(c6ccc[nH]6)C=CC4=C5)cc3C2=O)CC1 [NAN-190-2-NB590] | 1.02 |  |  |
| CN1CCN(C2=Nc3cc(Cl)ccc3N(CC(=O)NCCOCCOCCOCCOCCNC(=O)CCc3ccc4n3[B-](F)(F)[N+]3=C(c5ccc[nH]5)C=CC3=C4)c3ccccc32)CC1 [Clozapine-c-2-NB590] |  |  | NanoBRET Fold Response (ADORA2A, 0.1μM tracer): 1.01; NanoBRET Fold Response (ADORA2A, 1μM tracer): 0.94 |
| COc1ccc2[nH]c(-c3ccc(CNC(=O)CCOCCOCCOCCOCCNC(=O)CCc4ccc5n4[B-](F)(F)[N+]4=C(c6ccc[nH]6)C=CC4=C5)cc3)c(CCNC(C)=O)c2n1 [AzomelatoninICO9-2-NB590] |  |  | NanoBRET Fold Response (0.1μM tracer): 1.16; NanoBRET Fold Response (1μM tracer): 0.82 |
| O=C(CCOCCOCCOCCOCCNC(=O)CCc1ccc2n1[B-](F)(F)[N+]1=C(c3ccc[nH]3)C=CC1=C2)NCCCN1CCN(C2=Nc3cc(Cl)ccc3Nc3ccccc32)CC1 [Clozapine-a-2-NB590] |  |  | NanoBRET Fold Response (ADORA2A, 0.1μM tracer): 0.95; NanoBRET Fold Response (ADORA2A, 1μM tracer): 0.89 |
| CCCn1c(=O)c2[nH]c(-c3ccc(OCC(=O)NCCNC(=O)CCOCCNC(=O)c4ccc(CNC(=O)CCc5ccc6n5[B-](F)(F)[N+]5=C(c7ccc[nH]7)C=CC5=C6)cc4)cc3)nc2n(CCC)c1=O [XAC-3-NB590] | 7.87 | 9.18 |  |
| O=C(CCc1ccc2n1[B-](F)(F)[N+]1=C(c3ccc[nH]3)C=CC1=C2)NCc1ccc(C(=O)NCCOCCOCCNCC(O)COc2cccc3ccccc23)cc1 (stereo not shown) [Propranolol-3-NB590] |  |  | NanoBRET Fold Response (ADORA2A, 0.1μM): 1.05; NanoBRET Fold Response (ADORA2A, 1μM): 0.99 |
| O=C(CCc1ccc2n1[B-](F)(F)[N+]1=C(c3ccc[nH]3)C=CC1=C2)NCc1ccc(C(=O)NCCOCCC(=O)N[C@@H]2CC[C@@]3(O)[C@H]4Cc5ccc(O)c6c5[C@@]3(CCN4CC3CC3)[C@H]2O6)cc1 [Naltrexone-3-NB590] | 1.08 | 0.58 |  |
| CN(CCC=C1c2ccccc2CCc2ccccc21)C(=O)CCOCCOCCOCCOCCNC(=O)CCc1ccc2n1[B-](F)(F)[N+]1=C(c3ccc[nH]3)C=CC1=C2 [Amitriptyline-e-2-NB590] |  |  | NanoBRET Fold Response (tracer at 1μM): 1.07 |
| N#CN=C(NCCCOc1cccc(CN2CCCCC2)c1)NCCNC(=O)CCOCCOCCOCCOCCNC(=O)CCc1ccc2n1[B-](F)(F)[N+]1=C(c3ccc[nH]3)C=CC1=C2 [Aminopotentidine-2-NB590] | 1.05 | 0.99 |  |
| COc1ccc2c(n1)c(CCNC(C)=O)cn2CCNC(=O)CCc1ccc2n1[B-](F)(F)[N+]1=C(c3ccc[nH]3)C=CC1=C2 [Azamelatonin-1-NB590] |  |  | NanoBRET Fold Response (0.1μM tracer): 0.87; NanoBRET Fold Response (1μM tracer): 0.92 |
| CC(C)N(CC[C@H](c1ccccc1)c1cc(CCNC(=O)c2ccc(CNC(=O)CCc3ccc4n3[B-](F)(F)[N+]3=C(c5ccc[nH]5)C=CC3=C4)cc2)ccc1O)C(C)C [Tolterodine-BZ-NB590] | 1.00 | 1.01 |  |
| CN1CCN(C2=Nc3cc(Cl)ccc3Nc3ccc(CNC(=O)CCOCCOCCOCCOCCNC(=O)CCc4ccc5n4[B-](F)(F)[N+]4=C(c6ccc[nH]6)C=CC4=C5)cc32)CC1 [Clozapine-b-2-NB590] |  |  | NanoBRET Fold Response (ADORA2A, 0.1μM tracer): 0.97; NanoBRET Fold Response (ADORA2A, 1μM tracer): 1.00 |
